Results taken from patent US3956274A, “New compound 6'-deoxy-'-substituted or unsubstituted amino-lividomycins and the production thereof” (Zaidan Hojin Biseibutsu Kagaku Kenkyu Kai, priority 1973, dated 1976).
Converted amounts (≈) assume the structure as drawn. Read-outs that look alike come from different tables or passages of the source.

Tests used:
[1] = tested on: Escherichia coli K-12 JR 66/W 677; assay: MIC, standard serial dilution method; type: cell-based; conditions: Escherichia coli, 18 h, read-out: Minimal inhibitory concentration
Protocol: (§1) The minimum inhibitory concentrations (mcg/ml) of 6'-amino-6'-deoxylividomycin B, 6'-deoxy-6'-methylaminolividomycin B and 6'-deoxy-6'-(2-hydroxyethylamino) lividomycin B against various microorganisms were determined according to a standard serial dilution method using nutrient agar incubation medium at 37°C, the estimation being effected after 18 hours incubation except for Mycobacterium smegmalis ATCC 607, in which the estimation being effected after 48 hours incubation. The minimum inhibitory concentrations (mcg/ml) of neomycin and lividomycin B were also determined in the same manner they also for comparison.
(§2) In the above table, the mark * denotes the strain is a drug-resistant
(§3) strain of patient-origin.

[2] = tested on: Escherichia coli K-12 LA 290 R 55; assay: MIC, standard serial dilution method; type: cell-based; conditions: Escherichia coli, 18 h, read-out: Minimal inhibitory concentration
Protocol: as §1, §2, §3

[3] = tested on: Pseudomonas aeruginosa GN 315; assay: MIC, standard serial dilution method; type: cell-based; conditions: Pseudomonas aeruginosa, read-out: Minimal inhibitory concentration
Protocol: as §1, §2, §3

[4] = tested on: Escherichia coli K-12 ML 1629; assay: MIC, standard serial dilution method; type: cell-based; conditions: Escherichia coli, K12ML1629; E. coli K-12 ML 1629, drug-resistant strain of patient-origin; nutrient agar, 37°C, 18 hours; read-out: Minimal inhibitory concentration
Protocol: as §1, §2, §3

[5] = tested on: Klebsiella pneumoniae PCI 602; assay: MIC, standard serial dilution method; type: cell-based; conditions: Klebsiella pneumoniae, PCI602; K. pneumoniae PCI 602; nutrient agar, 37°C, 18 hours; read-out: Minimal inhibitory concentration
Protocol: as §1

[6] = tested on: Escherichia coli K-12 ML 1410; assay: MIC, standard serial dilution method; type: cell-based; conditions: Escherichia coli, K12ML1410, 18 h, read-out: Minimal inhibitory concentration
Protocol: as §1

[7] = tested on: Escherichia coli K-12 W 677; assay: MIC, standard serial dilution method; type: cell-based; conditions: Escherichia coli, K12W677; E. coli K-12 W 677; nutrient agar, 37°C, 18 hours; read-out: Minimal inhibitory concentration
Protocol: as §1

[8] = tested on: Staphylococcus aureus FDA 209 P; assay: MIC, standard serial dilution method; type: cell-based; conditions: Staphylococcus aureus, FDA209; S. aureus FDA 209 P; nutrient agar, 37°C, 18 hours; read-out: Minimal inhibitory concentration
Protocol: as §1

[9] = tested on: Pseudomonas aeruginosa A 3; assay: MIC, standard serial dilution method; type: cell-based; conditions: Pseudomonas aeruginosa, A3, 18 h, read-out: Minimal inhibitory concentration
Protocol: as §1

[10] = tested on: Escherichia coli NIHJ; assay: MIC, standard serial dilution method; type: cell-based; conditions: Escherichia coli, read-out: Minimal inhibitory concentration
Protocol: as §1

[11] = tested on: Pseudomonas aeruginosa TI-13-1; assay: MIC, standard serial dilution method; type: cell-based; conditions: Pseudomonas aeruginosa, TI131; P. aeruginosa TI-13-1; nutrient agar, 37°C, 18 hours; read-out: Minimal inhibitory concentration
Protocol: as §1

[12] = tested on: Escherichia coli K-12 LA 290 R 64; assay: MIC, standard serial dilution method; type: cell-based; conditions: Escherichia coli; E. coli K-12 LA 290 R 64; nutrient agar, 37°C, 18 hours; read-out: Minimal inhibitory concentration
Protocol: as §1

[13] = tested on: Bacillus subtilis NRRL B-558; assay: MIC, standard serial dilution method; type: cell-based; conditions: Bacillus subtilis, NRRLB558; B. subtilis NRRL B-558; nutrient agar, 37°C, 18 hours; read-out: Minimal inhibitory concentration
Protocol: as §1

[14] = tested on: Escherichia coli K-12 J 5 R 11-2; assay: MIC, standard serial dilution method; type: cell-based; conditions: Escherichia coli, K12J5R112; E. coli K-12 J 5 R 11-2; nutrient agar, 37°C, 18 hours; read-out: Minimal inhibitory concentration
Protocol: as §1

[15] = tested on: Escherichia coli K-12 ML 1410 R 81; assay: MIC, standard serial dilution method; type: cell-based; conditions: Escherichia coli, 18 h, read-out: Minimal inhibitory concentration
Protocol: as §1

[16] = tested on: Escherichia coli K-12; assay: MIC, standard serial dilution method; type: cell-based; conditions: Escherichia coli, K12; E. coli K-12; nutrient agar, 37°C, 18 hours; read-out: Minimal inhibitory concentration
Protocol: as §1

[17] = tested on: Escherichia coli K-12 LA 290 R 56; assay: MIC, standard serial dilution method; type: cell-based; conditions: Escherichia coli, 18 h, read-out: Minimal inhibitory concentration
Protocol: as §1

[18] = tested on: Escherichia coli K-12 ML 1630; assay: MIC, standard serial dilution method; type: cell-based; conditions: Escherichia coli, K12ML1630; E. coli K-12 ML 1630; nutrient agar, 37°C, 18 hours; read-out: Minimal inhibitory concentration
Protocol: as §1

[19] = tested on: Pseudomonas aeruginosa No.12; assay: MIC, standard serial dilution method; type: cell-based; conditions: Pseudomonas aeruginosa; P. aeruginosa No.12; nutrient agar, 37°C, 18 hours; read-out: Minimal inhibitory concentration
Protocol: as §1

[20] = tested on: Salmonella typhosa T-63; assay: MIC, standard serial dilution method; type: cell-based; conditions: Salmonella enterica, TYPHOSA, 18 h, read-out: Minimal inhibitory concentration
Protocol: as §1

[21] = tested on: Klebsiella pneumoniae type 22 No. 3038; assay: MIC, standard serial dilution method; type: cell-based; conditions: Klebsiella pneumoniae, TYPE22NO.3038, 18 h, read-out: Minimal inhibitory concentration
Protocol: as §1

[22] = tested on: Mycobacterium smegmatis ATCC 607; assay: MIC, standard serial dilution method; type: cell-based; conditions: Mycolicibacterium smegmatis, ATCC607, nutrient agar, 37°C, 48 hours, read-out: Minimal inhibitory concentration
Protocol: as §1

[23] = tested on: Proteus rettgeri GN 466; assay: MIC, standard serial dilution method; type: cell-based; conditions: Providencia rettgeri, GN466; Proteus rettgeri GN 466; nutrient agar, 37°C, 18 hours; read-out: Minimal inhibitory concentration
Protocol: as §1

[24] = tested on: Sarcina lutea PCI 1001; assay: MIC, standard serial dilution method; type: cell-based; conditions: Micrococcus luteus, PCI1001, nutrient agar, 37°C, 18 hours, read-out: Minimal inhibitory concentration
Protocol: as §1

[25] = tested on: Escherichia coli K-12 R-5; assay: MIC, standard serial dilution method; type: cell-based; conditions: Escherichia coli, K12R5; E. coli K-12 R-5; nutrient agar, 37°C, 18 hours; read-out: Minimal inhibitory concentration
Protocol: as §1

[26] = tested on: Proteus rettgeri GN 311; assay: MIC, standard serial dilution method; type: cell-based; conditions: Providencia rettgeri, GN311, nutrient agar, 37°C, 18 hours, read-out: Minimal inhibitory concentration
Protocol: as §1

[27] = tested on: Pseudomonas aeruginosa 99; assay: MIC, standard serial dilution method; type: cell-based; conditions: read-out: Minimal inhibitory concentration
Protocol: as §1

[28] = tested on: kanamycin-resistant strains; conditions: in words; cited from earlier work

With CNC[C@H]1O[C@H](O[C@H]2[C@H](O[C@@H]3O[C@H](CO)[C@@H](O[C@H]4O[C@@H](CN)[C@@H](O)[C@H](O)[C@H]4N)[C@H]3O)[C@@H](O)[C@H](N)C[C@@H]2N)[C@H](N)C[C@@H]1O [MALVB, 6'-deoxy-6'-methylaminolividomycin B] the MIC [1] was 3.12 µg/mL (≈ 5.09 µM), the MIC [2] was 1.56 µg/mL (≈ 2.55 µM) and the MIC ([3]; GN315, 18 h) was 3.12 µg/mL (≈ 5.09 µM). For the same compound, the MIC [4] was greater than 100 µg/mL, the MIC [5] was 0.78 µg/mL (≈ 1.27 µM) and the MIC [6] was 3.12 µg/mL (≈ 5.09 µM). For the same compound, the MIC [7] was 0.78 µg/mL (≈ 1.27 µM), the MIC [8] was less than 0.2 µg/mL and the MIC [9] was 3.12 µg/mL (≈ 5.09 µM). It also gave an MIC ([10]; 18 h) of 3.12 µg/mL (≈ 5.09 µM), an MIC [11] greater than 100 µg/mL and an MIC [12] of 0.78 µg/mL (≈ 1.27 µM). It also gave an MIC [13] of less than 0.2 µg/mL, an MIC [14] of 100 µg/mL (≈ 163 µM) and an MIC [15] greater than 100 µg/mL. For the same compound, the MIC [16] was 0.78 µg/mL (≈ 1.27 µM), the MIC [17] was 1.56 µg/mL (≈ 2.55 µM) and the MIC [18] was greater than 100 µg/mL. For the same compound, the MIC [19] was 0.78 µg/mL (≈ 1.27 µM), the MIC [20] was 0.78 µg/mL (≈ 1.27 µM) and the MIC [21] was 1.56 µg/mL (≈ 2.55 µM). It also gave an MIC [22] of less than 0.2 µg/mL, an MIC [23] of 12.5 µg/mL (≈ 20.4 µM) and an MIC [24] of 6.25 µg/mL (≈ 10.2 µM). The MIC [25] was 1.56 µg/mL (≈ 2.55 µM), the MIC [26] was 25 µg/mL (≈ 40.8 µM) and the MIC ([27]; Pseudomonas aeruginosa, P. aeruginosa 99, nutrient agar, 37°C, 18 hours) was 25 µg/mL (≈ 40.8 µM).

For NCC1OC(OC2C(N)CC(N)C(OC3OC(CO)C(O)C(N)C3O)C2O)C(O)CC1O (stereo not drawn) [3'-Deoxykananmycin, 3'-deoxykanamycin], the “activity against kanamycin-resistant strains” value [28] is given as “actually effective”.

NC[C@@H]1O[C@H](O[C@H]2[C@@H](O)[C@H](O[C@@H]3[C@@H](O)[C@H](N)C[C@H](N)[C@H]3O[C@H]3O[C@H](CN)[C@@H](O)C[C@H]3N)O[C@@H]2CO)[C@H](N)[C@@H](O)[C@@H]1O [ALVB, 6'-amino-6'-deoxylividomycin B] showed an MIC [1] of 1.56 µg/mL (≈ 2.61 µM), an MIC [2] of 1.56 µg/mL (≈ 2.61 µM) and an MIC ([3]; GN315, P. aeruginosa GN 315, drug-resistant strain of patient-origin, nutrient agar, 37°C, 18 hours) of 25 µg/mL (≈ 41.8 µM). The MIC [4] was 50 µg/mL (≈ 83.5 µM), the MIC [5] was 0.78 µg/mL (≈ 1.3 µM) and the MIC [6] was 1.56 µg/mL (≈ 2.61 µM). For the same compound, the MIC [7] was 0.78 µg/mL (≈ 1.3 µM), the MIC [8] was less than 0.2 µg/mL and the MIC [9] was 1.56 µg/mL (≈ 2.61 µM). For the same compound, the MIC ([10]; E. coli NIHJ, nutrient agar, 37°C, 18 hours) was 0.78 µg/mL (≈ 1.3 µM), the MIC [11] was 100 µg/mL (≈ 167 µM) and the MIC [13] was less than 0.2 µg/mL. It also gave an MIC [14] of 25 µg/mL (≈ 41.8 µM), an MIC [15] of 100 µg/mL (≈ 167 µM) and an MIC [16] of 0.78 µg/mL (≈ 1.3 µM). For the same compound, the MIC [17] was 0.39 µg/mL (≈ 0.651 µM), the MIC [18] was 50 µg/mL (≈ 83.5 µM) and the MIC [19] was 0.78 µg/mL (≈ 1.3 µM). For the same compound, the MIC [20] was 0.39 µg/mL (≈ 0.651 µM), the MIC [21] was 1.56 µg/mL (≈ 2.61 µM) and the MIC [22] was less than 0.2 µg/mL. It also gave an MIC [23] of 3.12 µg/mL (≈ 5.21 µM), an MIC [24] of 0.78 µg/mL (≈ 1.3 µM) and an MIC [25] of 0.39 µg/mL (≈ 0.651 µM). It also gave an MIC [26] of 25 µg/mL (≈ 41.8 µM) and an MIC ([27]; Pseudomonas aeruginosa, 99, 18 h) of 1.56 µg/mL (≈ 2.61 µM).
